Where a SMILES comes first, the peptide text is derived from it. Bridges are numbered along the chain shown (N, C = ends).
How the values were obtained:
[1] = target: T1, beta-2-Microglobulin (β2m) (Homo sapiens, UniProt P61769); experiment: Surface plasmon resonance (SPR) binding of peptides to immobilized β2m
T1 construct: purchased Sigma Aldrich (Germany)
Procedure: The interaction between the protein and computationally optimized peptides was measured using the BIAcore 3000 (GE Healthcare, Milano, Italy). β2m was immobilized at a concentration of 100 μg/mL in 10 mM acetate buffer pH 5 (flow rate 5 μL/min, time injection 7 min) on a CM5 Biacore sensor chip, using EDC/NHS chemistry following the manufacturer’s instructions. Residual reactive groups were deactivated by treatment with 1 M ethanolamine hydrochloride, pH 8.5. The reference channel was activated with EDC/NHS and deactivated with ethanolamine. The binding assays were carried out at 20 μL/min at 25 °C, with 4.5 min contact-time. Peptides were diluted in the HBS running buffer (10 mM Hepes, 150 mM NaCl, 3 mM EDTA, pH 7.4). Analyte injections were performed at the indicated concentrations. The sensor surface was regenerated by using 10mM NaOH for 1 min. The association phase (kon) was followed for 250 s, whereas the dissociation phase (koff) was followed for 300 s. The instrument BIAevaluation analysis package (version 4.1, GE Healthcare, Milano, Italy) was used to subtract the signal of the reference channel.

[2] = target: T1, beta-2-Microglobulin (β2m); experiment: AFM differential height β2m binding (recognition) assay on dsDNA–peptide nanopatches; details: 5 and 1.25 mg/mL β2m
Procedure: After the nanografting process, the sample was thoroughly rinsed with 1M NaCl, TE1X buffer (DNA-free buffer), followed by a hybridization procedure with 200 nM of ssDNA–peptide conjugates solution in 1 M NaCl, Te1X at pH 7.2 and the hybridization process took place at 37 °C for 1 h. This was repeated for different concentrations of the ssDNA–pep381 so as to obtain the plots in Figure 7. Next, the sample was copiously rinsed with 1M NaCl, TE1X buffer (DNA-free buffer). This was to remove any un-bound molecules and other excess molecules that were not part of the hybridization. At the end of hybridization process before β2m binding assays, we performed AFM topographic imaging at low force (~0.2 nN) in contact mode and acquired AFM micrographs of all the nanografted nanoassemblages that had undergone hybridization. This imaging section allowed us to compare the AFM micrographs of ssDNA nanopatches to the same after hybridization with ssDNA–peptide conjugates and measure their respective relative heights.
The dsDNA–peptide nanoassemblages were incubated with the known concentration of β2m solution for a period of 1 h at 25 °C. […] Next, we measured the relative height of dsDNA–peptide assemblage after the binding assay using the section tool in Igor Pro 6.3A software. […]

T1 sequence (P61769 21-119): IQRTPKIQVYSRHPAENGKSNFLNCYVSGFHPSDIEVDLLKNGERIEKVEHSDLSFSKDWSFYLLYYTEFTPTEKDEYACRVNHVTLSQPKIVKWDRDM

**Q.** Which kon ([1]; BIAcore 3000, HBS pH 7.4, 25 °C, association followed for 250 s, χ^2 = 4.5) does the source give for `C[C@@H]1NC(=O)[C@H]([C@@H](C)O)NC(=O)[C@H](CCC(=O)O)NC(=O)[C@H](Cc2ccccc2)NC(=O)[C@@H](N)CSSC[C@@H](C(=O)O)NC(=O)[C@H](Cc2c[nH]c3ccccc23)NC(=O)[C@H](CCC(=O)O)NC(=O)[C@H](CC(N)=O)NC(=O)[C@H](CCC(N)=O)NC(=O)[C@H](CCCNC(=N)N)NC(=O)[C@H](Cc2c[nH]c3ccccc23)NC1=O` [pep331] (H-CFETAWRQNEWC-OH; disulfide 1-12) here?
**A.** 15 M⁻¹ s⁻¹

**Q.** What about the koff ([1]; BIAcore 3000, HBS pH 7.4, 25 °C, dissociation followed for 300 s, χ^2 = 4.5) of the same compound?
**A.** 0.00449 s⁻¹

**Q.** What about the “SPR affinity, in words” value ([1]; SPR, 1:1 Langmuir) of the same compound?
**A.** micromolar KD estimated values

**Q.** With [CRRYSHQHYRHC] (disulfide) [pep381] as the compound, how does the “recognition of respective binding sites on β2m, in words” value [2] read?
**A.** relatively high sensitivity

Source: publication PMC7831021, “Computational Evolution of Beta-2-Microglobulin Binding Peptides for Nanopatterned Surface Sensors” (International Journal of Molecular Sciences, 2021)
